Experimental data taken from ChEMBL document CHEMBL1201862, “PubChem BioAssay data set” (2004).
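All cell lines were grown in 96-well plates and treated with compound for 48 hours. Abbreviation: GI50, concentration required for 50% inhibition of growth.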 The source made the active and inactive calls. Rule as the data show it: active = GI50 up to about 1.1 µM and inactive = higher.

Tests used:
Test in all cases: inhibition of tumour cell growth, NCI panel, 48 h
A549 = tested on: A549
ACHN = tested on: ACHN
COLO 205 = tested on: COLO 205
EKVX = tested on: EKVX
HCT-116 = tested on: HCT-116
HOP-62 = tested on: HOP-62
KM-20L2 = tested on: KM-20L2
LOX IMVI = tested on: LOX IMVI
M14 = tested on: M14
RXF 393 = tested on: RXF 393
SF-539 = tested on: SF-539
SK-MEL-2 = tested on: SK-MEL-2
SNB-75 = tested on: SNB-75
UACC-257 = tested on: UACC-257
UO-31 = tested on: UO-31
A498 = tested on: A498
UACC-62 = tested on: UACC-62
DU-145 = tested on: DU-145
MDA-MB-231 = tested on: MDA-MB-231
T47D = tested on: T47D

Measured: GI50

C=CCCOC(=O)CO[N+](=O)[O-]
inactive: A549 > 100 µM | ACHN > 100 µM | COLO 205 > 100 µM | EKVX > 100 µM | HCT-116 > 100 µM | HOP-62 > 100 µM | KM-20L2 > 100 µM | LOX IMVI > 100 µM | M14 > 100 µM | RXF 393 > 100 µM | SF-539 > 100 µM | SK-MEL-2 > 100 µM | SNB-75 > 100 µM | UACC-257 > 100 µM | UO-31 > 100 µM

COc1ccc(/C=C2\Cc3ccccc3C2=O)cc1OC
inactive: A498 > 100 µM | A549 > 100 µM | ACHN > 100 µM | COLO 205 > 100 µM | EKVX > 100 µM | HOP-62 > 100 µM | KM-20L2 > 100 µM | M14 > 100 µM | SK-MEL-2 > 100 µM | SNB-75 > 10 µM | UACC-257 > 100 µM | UACC-62 > 100 µM | UO-31 39.7 µM

C=CC1[C@H]2COC(C)(C)O[C@@H]2CC(=O)C1(C)C (stereo not given in full)
inactive: A549 > 100 µM | ACHN 94 µM | COLO 205 > 100 µM | EKVX 54.2 µM | HCT-116 > 100 µM | HOP-62 > 100 µM | KM-20L2 > 100 µM | LOX IMVI > 100 µM | M14 > 100 µM | RXF 393 94.8 µM | SF-539 > 100 µM | SK-MEL-2 > 100 µM | SNB-75 > 100 µM | UACC-257 > 100 µM | UO-31 > 100 µM

CCNC(=O)OCc1c(COC(=O)NCC)c(-c2ccc(Cl)c(Cl)c2)n2c1CCC2
inactive: A549 18.5 µM | ACHN 4.88 µM | COLO 205 24.9 µM | HCT-116 9.4 µM | HOP-62 7.33 µM | KM-20L2 16.9 µM | M14 11.1 µM | SF-539 11.5 µM | SK-MEL-2 13.1 µM | SNB-75 11.1 µM | UACC-257 12.2 µM | UACC-62 5.92 µM | UO-31 5.22 µM

C[C@@H]1C[C@H]2[C@@H]3CCC4=CC(=O)C=C[C@]4(C)[C@@]3(F)[C@@H](O)C[C@]2(C)[C@@]1(O)C(=O)CO [DEXAMETHASONE]
inactive: A549 > 100 µM | ACHN > 100 µM | COLO 205 > 100 µM | EKVX 83.6 µM | HCT-116 > 100 µM | HOP-62 > 100 µM | KM-20L2 > 100 µM | LOX IMVI > 100 µM | M14 > 100 µM | SK-MEL-2 > 100 µM | UACC-257 > 100 µM | UACC-62 > 100 µM | UO-31 > 100 µM

OCC1OC(N2CCN(C3OC(CO)C(O)C(O)C3O)CC2)C(O)C(O)C1O (stereo not given)
inactive: A498 > 100 µM | A549 > 100 µM | ACHN > 100 µM | COLO 205 > 100 µM | DU-145 > 100 µM | EKVX > 100 µM | HCT-116 > 100 µM | HOP-62 > 100 µM | LOX IMVI > 100 µM | M14 > 100 µM | MDA-MB-231 > 100 µM | RXF 393 > 100 µM | SF-539 > 100 µM | SK-MEL-2 > 100 µM | SNB-75 > 100 µM | T47D > 100 µM | UACC-257 > 100 µM | UACC-62 > 100 µM | UO-31 > 100 µM

C[N+]1(CCN[N+]2(C)CCCCC2)CCc2ccccc2C1 (stereo not given)
inactive: A498 > 100 µM | A549 > 100 µM | ACHN > 100 µM | COLO 205 > 100 µM | DU-145 > 100 µM | EKVX > 100 µM | HCT-116 > 100 µM | HOP-62 > 100 µM | LOX IMVI > 100 µM | M14 > 100 µM | MDA-MB-231 > 100 µM | RXF 393 > 100 µM | SF-539 58.3 µM | SK-MEL-2 > 100 µM | SNB-75 > 100 µM | T47D > 100 µM | UACC-257 > 100 µM | UACC-62 > 100 µM | UO-31 > 100 µM

Cc1cc2c(=O)c3ccccc3[nH]c2c(C(N)=O)c1C
inactive: A549 > 100 µM | ACHN > 100 µM | COLO 205 > 100 µM | EKVX > 100 µM | HCT-116 > 100 µM | KM-20L2 > 100 µM | LOX IMVI > 100 µM | M14 > 100 µM | RXF 393 > 100 µM | SF-539 > 100 µM | SK-MEL-2 > 100 µM | SNB-75 > 100 µM | UACC-257 > 100 µM | UACC-62 > 100 µM | UO-31 > 100 µM

COc1ccc(C(=O)/C=C2\C(=O)Nc3ccc(Br)cc32)cc1
inactive: A498 17.9 µM | A549 15.3 µM | ACHN 1.89 µM | COLO 205 2.3 µM | DU-145 7.48 µM | EKVX 13.6 µM | HCT-116 4.05 µM | HOP-62 10.4 µM | LOX IMVI 1.99 µM | M14 12 µM | MDA-MB-231 5.57 µM | RXF 393 2.29 µM | SF-539 7.93 µM | SK-MEL-2 16.1 µM | SNB-75 14.3 µM | T47D 11.5 µM | UACC-257 11.3 µM | UACC-62 13.9 µM | UO-31 2.24 µM

CCC1=CCN(c2cc(C)ccn2)OC1c1ccccc1 (stereo not given)
inactive: A549 40.1 µM | ACHN 45.5 µM | COLO 205 40.6 µM | EKVX 56.4 µM | HCT-116 30.8 µM | HOP-62 > 100 µM | KM-20L2 39.2 µM | LOX IMVI 30.9 µM | M14 31.3 µM | RXF 393 29.3 µM | SF-539 > 100 µM | SK-MEL-2 21.4 µM | SNB-75 45.6 µM | UACC-257 33.3 µM | UACC-62 39.2 µM | UO-31 50 µM

Cc1[nH]c(=O)nc(NCCNCCO)c1C(=O)Nc1c2ccccc2nc2ccccc12
inactive: A498 > 100 µM | A549 > 100 µM | ACHN > 100 µM | COLO 205 > 100 µM | DU-145 > 100 µM | EKVX > 100 µM | HCT-116 > 100 µM | HOP-62 > 100 µM | LOX IMVI > 100 µM | M14 > 100 µM | MDA-MB-231 > 100 µM | RXF 393 > 100 µM | SF-539 > 100 µM | SK-MEL-2 > 100 µM | SNB-75 > 100 µM | T47D > 100 µM | UACC-257 > 100 µM | UACC-62 > 100 µM | UO-31 > 100 µM

C=C1C(=O)O[C@H]2C[C@@H](C)[C@@H]3CC(=O)OC[C@@]3(C)CC12 (stereo not given in full)
inactive: A549 27.8 µM | ACHN 21.7 µM | COLO 205 20.9 µM | EKVX 27.5 µM | HCT-116 21 µM | HOP-62 44.8 µM | KM-20L2 18.5 µM | LOX IMVI 24.9 µM | M14 14.4 µM | SF-539 21.9 µM | SK-MEL-2 35.8 µM | SNB-75 30.1 µM | UACC-62 19.2 µM | UO-31 49.1 µM
